Tested on: TW1 hESCs
Assay: Comparison of additive groups: morphology and Oct4/Nestin immunofluorescence
Assay type: cell-based, human
Conditions: compared to group 3 (BIO + SB431542)
Excerpt: The TW1 hESCs were divided into four groups according to the additives at culture day 3. The detail of the above steps refers to the examples 1 to 3.
Referring to the methods in examples 5 and 6, the protein expressions of Oct4 and Nestin in the each groups and the results were examined and shown in FIG. 9.

fibroblast growth factor-2 [FGF2]
compaction and neural rosettes formation: further enhanced
